Results taken from USRE49850E1, “N-(pyridin-2-yl)-4-(thiazol-5-yl)pyrimidin-2-amine derivatives as therapeutic compounds” (AUCENTRA THERAPEUTICS PTY LTD, priority 2015, dated 2024).
Read-outs that look alike come from different tables or passages of the source.

What was measured:
CDK6D3 = target: T1, CDK6D3 (Homo sapiens, UniProt Q00534); assay: Kinase assay CDK6/D3 (radiometric or ADP Glo); assay type: biochemical; conditions: apparent Ki calculated from Km (ATP) and IC50; read-out: CDK inhibition Ki CDK6D3
T1 construct: purchased Eurofins Pharma Discovery or Reaction Biology Corporation (service)
Protocol: (§1) Eurofins Pharma Discovery or Reaction Biology Corporation Kinase Profiler services were used to measure inhibition of CDKs and other kinases by radiometric assay. Inhibition of CDK4/D1, CDK6/D3 and CDK9/T1 were also determined in-house using ADP Glo Kinase assays (Promega Corporation, Madison, USA). Briefly, the kinase reaction for CDK4/D1 and CDK6/D3 was performed with kinase reaction buffer ([…] Tris base pH 7.5, 20 mM MgCl2, 0.4 mM DTT), 0.1 mg/ml BSA and RB-CTF substrate (retinoblastoma protein1 C-terminal fraction). For CDK9/CyclinT1, the kinase reaction was performed with standard assay buffer and Kinase Dilution Buffer and RBER-IRStide substrate. Serial dilutions of 1:3 were prepared for test compounds for 10 concentrations (from 10 μM to 0.5 nM). The kinase reactions were started by addition of ATP, incubated for 40 min at 37° C. and then stopped by adding 10 μL of ADP Glo reagent. After incubation at room temperature in the dark for 40 min, 20 μL of kinase detection reagent was added per well and incubated for 40 min. Luminescence was measured using an EnVision Multilabel plate reader (PerkinElmer, Buckinghamshire, UK). Positive and negative controls were perfonned in the presence and absence of CDK kinases, respectively. Half-maximal inhibition (IC50) values were calculated using a 4-parameter logistic non-linear regression model with Graphpad prism (Version 6.0). Apparent inhibition constants (Ki) values were calculated from Km (ATP) and IC50 values for the respective kinases.

CDK4D1 = target: T2, CDK4D1 (Homo sapiens, UniProt P11802); assay: Kinase assay CDK4/D1 (radiometric or ADP Glo); assay type: biochemical; conditions: apparent Ki calculated from Km (ATP) and IC50; read-out: CDK inhibition Ki CDK4D1
T2 construct: purchased Eurofins Pharma Discovery or Reaction Biology Corporation (service)
Protocol: as §1

MV4-11 = assay: Cell viability assay (resazurin, leukemia cell line) MV4-11; assay type: cell-based, human; conditions: read-out: Anti-proliferative activity GI50 MV4-11
Excerpt: (§2) Compounds from Example 1 were subjected to a standard MTT (3-(4,5-dimethylthiazol-2-yl)-2,5-diphenyltetrazolium bromide) and resazurin assays on solid tumour cell lines and leukemia cell lines, respectively, as previously reported (Wang S et al., J Med Chem 47:1662-1675, 2004 and Diab S. et al. CheMedChem 9:962-972, 2014).

CDK1B = CDK1B (Homo sapiens, UniProt P06493); assay: Kinase assay CDK1B (radiometric profiling service); assay type: biochemical; conditions: apparent Ki calculated from Km (ATP) and IC50; read-out: CDK inhibition Ki CDK1B
Protocol: as §1

CDK9T1 = target: T3, CDK9T1 (Homo sapiens, UniProt P50750); assay: Kinase assay CDK9/T1 (radiometric or ADP Glo); assay type: biochemical; conditions: apparent Ki calculated from Km (ATP) and IC50; read-out: CDK inhibition Ki CDK9T1
T3 construct: purchased Eurofins Pharma Discovery or Reaction Biology Corporation (service)
Protocol: as §1

CDK 2A = CDK 2A (Homo sapiens, UniProt P24941); assay: Kinase assay CDK2A (radiometric profiling service); assay type: biochemical; conditions: apparent Ki calculated from Km (ATP) and IC50; read-out: CDK inhibition Ki CDK 2A
Protocol: as §1

MDA-MB-453 = assay: Cell viability assay (MTT, solid tumour cell line) MDA-MB-453; assay type: cell-based, human; conditions: read-out: Anti-proliferative activity GI50 MDA-MB-453
Excerpt: as §2

CDK7H = CDK7H (Homo sapiens, UniProt P50613); assay: Kinase assay CDK7H (radiometric profiling service); assay type: biochemical; conditions: apparent Ki calculated from Km (ATP) and IC50; read-out: CDK inhibition Ki CDK7H
Protocol: as §1

T1 sequence (Q00534 whole entry): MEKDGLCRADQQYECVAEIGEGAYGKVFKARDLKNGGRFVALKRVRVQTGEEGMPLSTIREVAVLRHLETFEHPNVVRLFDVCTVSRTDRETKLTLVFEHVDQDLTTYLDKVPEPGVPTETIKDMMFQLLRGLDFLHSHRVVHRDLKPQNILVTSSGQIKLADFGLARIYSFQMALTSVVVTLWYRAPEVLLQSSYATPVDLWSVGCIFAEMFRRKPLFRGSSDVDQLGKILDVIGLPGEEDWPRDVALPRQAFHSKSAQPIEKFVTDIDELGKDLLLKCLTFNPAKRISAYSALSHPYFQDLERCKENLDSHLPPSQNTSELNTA
T1 sequence (P30281 whole entry partner): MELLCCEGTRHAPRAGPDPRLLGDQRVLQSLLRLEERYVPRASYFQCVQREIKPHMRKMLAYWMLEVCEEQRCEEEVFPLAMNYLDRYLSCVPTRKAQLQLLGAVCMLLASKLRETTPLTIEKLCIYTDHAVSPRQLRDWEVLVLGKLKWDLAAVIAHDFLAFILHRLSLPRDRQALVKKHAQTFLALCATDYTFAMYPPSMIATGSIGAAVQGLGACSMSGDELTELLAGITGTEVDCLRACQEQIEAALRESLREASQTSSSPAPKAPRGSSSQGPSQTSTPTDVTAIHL
Sequence of CDK7H (P50613 whole entry): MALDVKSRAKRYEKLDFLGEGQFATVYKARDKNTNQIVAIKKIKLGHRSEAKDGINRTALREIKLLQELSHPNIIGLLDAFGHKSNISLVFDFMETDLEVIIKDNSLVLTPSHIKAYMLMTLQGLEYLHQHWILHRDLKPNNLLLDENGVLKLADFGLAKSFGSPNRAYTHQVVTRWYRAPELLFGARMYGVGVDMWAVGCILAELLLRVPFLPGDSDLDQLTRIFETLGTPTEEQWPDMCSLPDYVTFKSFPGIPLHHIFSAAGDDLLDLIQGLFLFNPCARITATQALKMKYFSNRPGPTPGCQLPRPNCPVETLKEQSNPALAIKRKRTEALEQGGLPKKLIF
Sequence of CDK7H (P51946 whole entry partner): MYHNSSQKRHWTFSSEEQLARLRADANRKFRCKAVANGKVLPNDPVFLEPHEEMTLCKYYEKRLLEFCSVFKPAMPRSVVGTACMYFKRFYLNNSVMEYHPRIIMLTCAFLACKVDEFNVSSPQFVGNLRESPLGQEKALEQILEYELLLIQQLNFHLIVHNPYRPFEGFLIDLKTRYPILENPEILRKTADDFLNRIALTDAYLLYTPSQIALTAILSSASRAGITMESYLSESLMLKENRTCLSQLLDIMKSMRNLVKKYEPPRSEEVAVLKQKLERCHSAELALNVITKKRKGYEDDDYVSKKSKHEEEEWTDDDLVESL
Sequence of CDK7H (P51948 whole entry partner): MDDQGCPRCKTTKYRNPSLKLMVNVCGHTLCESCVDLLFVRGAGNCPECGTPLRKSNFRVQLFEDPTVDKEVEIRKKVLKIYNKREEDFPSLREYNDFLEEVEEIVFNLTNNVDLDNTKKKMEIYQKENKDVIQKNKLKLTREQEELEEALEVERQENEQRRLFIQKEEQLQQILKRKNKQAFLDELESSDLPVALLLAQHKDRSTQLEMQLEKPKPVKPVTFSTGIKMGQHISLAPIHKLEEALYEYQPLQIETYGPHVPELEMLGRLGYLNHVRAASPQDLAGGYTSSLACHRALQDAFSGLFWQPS
T3 sequence (P50750 whole entry): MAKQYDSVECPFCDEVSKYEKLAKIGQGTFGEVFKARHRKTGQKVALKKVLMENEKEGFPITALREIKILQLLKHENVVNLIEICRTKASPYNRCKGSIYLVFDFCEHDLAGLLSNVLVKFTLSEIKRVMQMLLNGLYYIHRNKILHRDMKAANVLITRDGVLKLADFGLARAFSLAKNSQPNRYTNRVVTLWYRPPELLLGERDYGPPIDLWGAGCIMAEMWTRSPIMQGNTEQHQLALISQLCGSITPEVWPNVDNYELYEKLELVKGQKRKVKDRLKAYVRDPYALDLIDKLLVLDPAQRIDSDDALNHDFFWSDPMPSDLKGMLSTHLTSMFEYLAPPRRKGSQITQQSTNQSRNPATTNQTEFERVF
T3 sequence (O60563 whole entry partner): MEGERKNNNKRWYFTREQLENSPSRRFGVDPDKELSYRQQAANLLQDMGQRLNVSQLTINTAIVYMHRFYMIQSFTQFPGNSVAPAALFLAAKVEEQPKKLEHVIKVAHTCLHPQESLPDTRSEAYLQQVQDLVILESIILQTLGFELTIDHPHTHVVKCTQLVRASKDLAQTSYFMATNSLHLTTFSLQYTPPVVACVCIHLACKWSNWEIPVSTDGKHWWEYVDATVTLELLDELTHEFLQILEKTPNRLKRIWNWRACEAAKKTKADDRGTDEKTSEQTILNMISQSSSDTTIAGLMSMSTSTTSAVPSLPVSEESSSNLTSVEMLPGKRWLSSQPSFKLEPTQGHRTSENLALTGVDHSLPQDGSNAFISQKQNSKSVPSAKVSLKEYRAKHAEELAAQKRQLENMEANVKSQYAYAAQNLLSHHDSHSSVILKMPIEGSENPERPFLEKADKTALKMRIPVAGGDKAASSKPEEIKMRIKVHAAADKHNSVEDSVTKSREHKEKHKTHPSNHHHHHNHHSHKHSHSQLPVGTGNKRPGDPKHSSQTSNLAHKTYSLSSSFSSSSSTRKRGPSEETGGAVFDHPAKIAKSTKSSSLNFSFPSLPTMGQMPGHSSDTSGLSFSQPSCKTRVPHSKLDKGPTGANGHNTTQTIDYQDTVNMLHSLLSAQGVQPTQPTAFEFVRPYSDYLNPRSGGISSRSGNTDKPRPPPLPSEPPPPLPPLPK
T2 sequence (P11802 whole entry): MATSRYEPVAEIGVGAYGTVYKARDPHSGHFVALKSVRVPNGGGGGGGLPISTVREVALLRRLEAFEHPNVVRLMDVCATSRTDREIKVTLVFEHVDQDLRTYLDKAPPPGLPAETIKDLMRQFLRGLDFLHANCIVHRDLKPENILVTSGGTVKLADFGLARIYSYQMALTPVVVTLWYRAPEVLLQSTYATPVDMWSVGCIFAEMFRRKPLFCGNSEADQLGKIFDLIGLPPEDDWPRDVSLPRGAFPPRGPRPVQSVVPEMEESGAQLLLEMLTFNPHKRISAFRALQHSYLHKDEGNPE
T2 sequence (P24385 whole entry partner): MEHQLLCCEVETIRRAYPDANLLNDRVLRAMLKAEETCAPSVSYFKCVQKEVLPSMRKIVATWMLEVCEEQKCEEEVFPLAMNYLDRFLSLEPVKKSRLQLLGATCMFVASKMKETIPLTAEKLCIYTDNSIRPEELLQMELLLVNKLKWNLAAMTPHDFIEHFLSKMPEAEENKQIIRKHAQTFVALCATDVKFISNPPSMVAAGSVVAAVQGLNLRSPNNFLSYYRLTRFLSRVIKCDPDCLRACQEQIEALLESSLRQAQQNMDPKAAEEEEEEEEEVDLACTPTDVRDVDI
Sequence of CDK1B (P06493 whole entry): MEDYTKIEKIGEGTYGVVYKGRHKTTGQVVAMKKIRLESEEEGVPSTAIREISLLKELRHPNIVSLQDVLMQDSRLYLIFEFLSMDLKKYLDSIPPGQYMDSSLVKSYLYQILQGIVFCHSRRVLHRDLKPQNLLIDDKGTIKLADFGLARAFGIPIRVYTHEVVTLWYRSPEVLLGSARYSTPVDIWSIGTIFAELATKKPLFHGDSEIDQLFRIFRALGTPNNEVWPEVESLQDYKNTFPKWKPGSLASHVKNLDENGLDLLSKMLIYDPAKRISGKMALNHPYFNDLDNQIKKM
Sequence of CDK1B (P14635 whole entry partner): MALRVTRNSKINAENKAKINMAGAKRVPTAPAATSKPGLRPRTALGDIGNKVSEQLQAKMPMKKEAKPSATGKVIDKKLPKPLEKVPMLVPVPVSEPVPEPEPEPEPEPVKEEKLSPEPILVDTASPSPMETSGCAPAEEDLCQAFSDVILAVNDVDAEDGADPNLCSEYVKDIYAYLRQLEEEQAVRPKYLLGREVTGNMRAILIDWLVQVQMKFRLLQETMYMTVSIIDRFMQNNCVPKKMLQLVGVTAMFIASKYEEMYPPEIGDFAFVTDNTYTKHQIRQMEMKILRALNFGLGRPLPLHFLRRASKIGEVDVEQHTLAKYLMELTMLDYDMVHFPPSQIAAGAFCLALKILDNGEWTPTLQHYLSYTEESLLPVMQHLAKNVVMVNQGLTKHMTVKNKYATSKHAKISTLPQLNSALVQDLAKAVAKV

| Compound | Ki (CDK6D3) [nM] | Ki (CDK4D1) [nM] | Ki (CDK1B) [nM] | Ki (CDK9T1) [nM] | Ki (CDK 2A) [nM] | Ki (CDK7H) [nM] | GI50 (MV4-11; Homo sapiens, MV4-11, 72 h) [nM] | GI50 (MDA-MB-453; Homo sapiens, MDA-MB-453, 72 h) [nM] | GI50 (MV4-11; 72 h) [nM] | GI50 (MDA-MB-453; 72 h) [nM] |
| --- | --- | --- | --- | --- | --- | --- | --- | --- | --- | --- |
| 5-(2-((5-(4-Ethylpiperazin-1-yl)pyridin-2-yl)amino)-5-fluoropyrimidin-4-yl)-N,4-dimethylthiazol-2-amine [Compound 32] | 20 | 5 | > 5000 | 2920 | 665 | > 5000 |  |  | 65 ± 2 | 528 ± 46 |
| Cc1nc(C)c(-c2ccnc(Nc3ccc(N4CCNCC4)cn3)n2)s1 [Compound 2, 4-(2,4-dimethylthiazol-5-yl)-N-(5-(piperazin-1-yl)pyridin-2-yl)pyrimidin-2-amine] | 245 | 55 | > 5000 | > 5000 | > 5000 | > 5000 | 1021 ± 7 | > 10000 |  |  |
| CNc1nc(C)c(-c2ccnc(Nc3ccc(N4CCN(Cc5ccccc5)CC4)cc3)n2)s1 [Compound 41, 5-(2-((4-(4-benzylpiperazin-1-yl)phenyl)amino)pyrimidin-4-yl)-N,4-dimethylthiazol-2-amine] | 225 | 6 | 133 | 117 | 37 | 67 | 38 ± 6 |  |  |  |
| CCN1CCN(Cc2ccc(Nc3ncc(F)c(-c4sc(NC5CCCC5)nc4C)n3)nc2)CC1 [Compound 84, N-cyclopentyl-5-(2-((5-((4-ethylpiperazin-1-yl)methyl)pyridin-2-yl)amino)-5-fluoropyrimidin-4-yl)-4-methylthiazol-2-amine] | 14 | 3 | > 5000 | 3570 |  | 630 |  | 622 ± 208 |  |  |

Further lines, with some results ahead:

| Ki (CDK6D3) [nM] | Ki (CDK4D1) [nM] | Ki (CDK1B) [nM] | Ki (CDK9T1) [nM] | Ki (CDK 2A) [nM] | Ki (CDK7H) [nM] | GI50 (MV4-11; Homo sapiens, MV4-11, 72 h) [nM] | GI50 (MDA-MB-453; Homo sapiens, MDA-MB-453, 72 h) [nM] | Compound | GI50 (MV4-11; 72 h) [nM] | GI50 (MDA-MB-453; 72 h) [nM] |
| --- | --- | --- | --- | --- | --- | --- | --- | --- | --- | --- |
| 590 | 81 | > 5000 | > 5000 | > 5000 | > 5000 | 1100 ± 345 | > 10000 | CC(=O)N1CCN(c2ccc(Nc3nccc(-c4sc(C)nc4C)n3)nc2)CC1 [Compound 1, 1-(4-(6-((4-(2,4-dimethylthiazol-5-yl)pyrimidin-2-yl)amino)pyridin-3-yl)piperazin-1-yl)ethan-1-one] |  |  |
| 170 | 30 | > 5000 | > 5000 | 1930 | > 5000 | 53 ± 3 | 378 ± 29 | Cc1nc(C)c(-c2ccnc(Nc3ccc(N4CCN(C)CC4)cn3)n2)s1 [Compound 3, 4-(2,4-dimethylthiazol-5-yl)-N-(5-(4-methylpiperazin-1-yl)pyridin-2-yl)pyrimidin-2-amine] |  |  |
| 117 | 31 | > 5000 | 2040 | > 5000 | > 5000 | 296 ± 287 | 1970 ± 404 | Cc1nc(C)c(-c2nc(Nc3ccc(N4CCNCC4)cn3)ncc2C#N)s1 [Compound 4, 4-(2,4-dimethylthiazol-5-yl)-2-((5-(piperazin-1-yl)pyridin-2-yl)amino)pyrimidine-5-carbonitrile] |  |  |
| 36 | 16 | > 5000 | 999 | > 5000 | > 5000 | 84 ± 8 |  | CNc1nc(C)c(-c2nc(Nc3ccc(N4CCN(Cc5ccccc5)CC4)cn3)ncc2C#N)s1 [Compound 40, 2-((5-(4-benzylpiperazin-1-yl)pyridin-2-yl)amino)-4-(4-methyl-2-(methylamino)thiazol-5-yl)pyrimidine-5-carbonitrile] |  |  |
| 36 | 1 | 89 | 34 | 17 | 101 | 37 ± 6 |  | CNc1nc(C)c(-c2nc(Nc3ccc(N4CCN(Cc5ccccc5)CC4)cc3)ncc2C#N)s1 [Compound 42, 2-((4-(4-benzylpiperazin-1-yl)phenyl)amino)-4-(4-methyl-2-(methylamino)thiazol-5-yl)pyrimidine-5-carbonitrile] |  |  |
